Measurements as given in patent publication US20080132549A1, “Sulphur-Linked Imidazone Compounds for the Treatment of Hiv/Aids” (Pfizer Inc., priority 2004, published 2008).

Target: T1, purified recombinant HIV-1 reverse transcriptase (Human immunodeficiency virus type 1 group M subtype B, UniProt P04585)
T1 construct: purified recombinant HIV-1 reverse transcriptase (RT, EC, 2.7.7.49); made in house; host or cells: Escherichia coli
Experiment: Inhibition of HIV-1 reverse transcriptase enzyme ([3H]-Flashplate enzyme assay, 384-well)
Type: biochemical
Settings: recombinant HIV-1 RT expressed in Escherichia Coli; 5% final DMSO
Description: The activity of the compounds of the invention as reverse transcriptase inhibitors may be measured using the following assay.
Inhibition of HIV-1 Reverse Transcriptase Enzyme
The reverse transcriptase activity of the compounds of the invention may be assayed as follows. Using the purified recombinant HIV-1 reverse transcriptase (RT, EC, 2.7.7.49) obtained by expression in Escherichia Coli, a 384-well plate assay system was established for assaying a large number of samples using the [3H]-Flashplate enzyme assay system (NEN-SMP 410A) following the manufacturer's recommendations. The compounds were dissolved in 100% DMSO and diluted with the appropriate buffer to a 5% final DMSO concentration. The inhibitory activity was expressed in percent inhibition relative to the DMSO control.

SMILES | IC50 [nM]
CCc1nc(CCO)n(CC)c1Sc1cc(C#N)cc(C#N)c1 [Example 1, 5-[3,5-Diethyl-2-(2-hydroxyethyl)-3H-imidazol-4-ylsulfanyl]-isophthalonitrile] | 38
CCc1nc(CCOC(N)=O)n(C)c1Sc1cc(C#N)cc(C#N)c1 [Example 4, Carbamic acid 2-[5-(3,5-dicyano-phenylsulfanyl)-4-ethyl-1-methyl-1H-imidazol-2-yl]-ethyl ester] | 926
CCn1c(CO)nc(C(F)(F)F)c1Sc1cc(C#N)cc(C#N)c1 [Example 9] | 1160
Cn1c(COC(N)=O)nc(C2CC2)c1Sc1cc(C#N)cc(C#N)c1 [Example 14, Carbamic acid 4-cyclopropyl-5-(3,5-dicyano-phenylsulfanyl)-1-methyl-1H-imidazol-2-ylmethyl ester] | 353
CCc1nc(CCOC)n(CC)c1Sc1cc(C#N)cc(C#N)c1 [Example 23, 5-[3,5-Diethyl-2-(2-methoxy-ethyl)-3H-imidazol-4-ylsulfanyl]-isophthalonitrile] | 147
Cc1nc(C(F)(F)F)c(Sc2cc(C#N)cc(C#N)c2)n1C [Example 38] | 1070
Cc1nc(C2CC2)c(Sc2cc(C#N)cc(C#N)c2)n1Cc1ccncc1 [Example 40] | 135

System: not given
Experiment: not given
Settings: not given

melting point [°C] | SMILES
170 to 172 | CCn1c(COC(N)=O)nc(C2CC2)c1Sc1cc(C#N)cc(C#N)c1
174 to 175 | CCn1c(COC(N)=O)nc(C(C)C)c1Sc1cc(C#N)cc(C#N)c1
156 to 158 | CCn1c(COC)nc(C(C)C)c1Sc1cc(C#N)cc(C#N)c1
133 to 135 | CCc1nc(CN)n(CC)c1Sc1cc(C#N)cc(C#N)c1
141 to 143 | CCc1nc(CO)n(CC)c1Sc1cc(C#N)cc(C#N)c1
122 to 124 | CCn1c(CCO)nc(C2CC2)c1Sc1cc(C#N)cc(C#N)c1
167 to 169 | CCn1c(CO)nc(C(C)C)c1Sc1cc(C#N)cc(C#N)c1

SMILES | melting point [°C]
CCn1c(CO)nc(C(F)(F)F)c1Sc1cc(C#N)cc(C#N)c1 [Example 9] | 184 to 186
